Data: PubChem BioAssay AID256 (DTP/NCI, 2004)
Several values for one entry are separate records, joined by “and”; a condition that tells them apart may be missing. Equal entries are not always repeated. Inconclusive results and toxic doses are left out. The calls were made as follows: active = survival T/C of 150% or more; inactive = T/C below 125% in these data. Residues, ends and D or L forms follow the SMILES beside them. *: point of attachment. Trt = c1ccc(C(c2ccccc2)(c2ccccc2)*)cc1; Cbz = O=C(OCc1ccccc1)*; Bn = c1ccc(C*)cc1; βAla = NCCC(=O)O

System: CD2F1 mice, L1210 leukemia ip, survival T/C
Test: NCI In Vivo Anticancer Drug Screen. Data for tumor model L1210 Leukemia (intraperitoneal) in CD2F1 (CDF1) mice
Settings: higher = longer survival
Summary of the method: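 In this screen, transplantable tumors were grown in mice given either the compound or its vehicle. Results were expressed as the treated measurement relative to the control measurement.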

[1] = endpoint: mean survival time, dose: 100.0 mg/kg/injection, schedule: Q01DX001 (ip), vehicle: saline with Tween-80
[2] = endpoint: mean survival time, dose: 200.0 mg/kg/injection, schedule: Q01DX001 (ip), vehicle: saline with Tween-80
[3] = endpoint: mean survival time, dose: 400.0 mg/kg/injection, schedule: Q01DX001 (ip), vehicle: saline with Tween-80
[4] = endpoint: mean survival time, dose: 100.0 mg/kg/injection, schedule: Q01DX009 (ip), vehicle: saline
[5] = endpoint: mean survival time, dose: 200.0 mg/kg/injection, schedule: Q01DX009 (ip), vehicle: saline
[6] = endpoint: mean survival time, dose: 400.0 mg/kg/injection, schedule: Q01DX009 (ip), vehicle: saline
[7] = endpoint: mean survival time, dose: 100.0 mg/kg/injection, schedule: Q04DX002 (ip), vehicle: saline with Tween-80
[8] = endpoint: mean survival time, dose: 200.0 mg/kg/injection, schedule: Q04DX002 (ip), vehicle: saline with Tween-80
[9] = endpoint: mean survival time, dose: 400.0 mg/kg/injection, schedule: Q04DX002 (ip), vehicle: saline with Tween-80
[10] = endpoint: mean survival time, dose: 100.0 mg/kg/injection, schedule: Q04DX003 (ip), vehicle: saline with Tween-80
[11] = endpoint: mean survival time, dose: 200.0 mg/kg/injection, schedule: Q04DX003 (ip), vehicle: saline with Tween-80
[12] = endpoint: mean survival time, dose: 400.0 mg/kg/injection, schedule: Q04DX003 (ip), vehicle: saline with Tween-80
[13] = endpoint: mean survival time, dose: 100.0 mg/kg/injection, schedule: Q01DX009 (ip), vehicle: saline with Tween-80
[14] = endpoint: mean survival time, dose: 200.0 mg/kg/injection, schedule: Q01DX009 (ip), vehicle: saline with Tween-80
[15] = endpoint: mean survival time, dose: 400.0 mg/kg/injection, schedule: Q01DX009 (ip), vehicle: saline with Tween-80
[16] = endpoint: mean survival time, dose: 50.0 mg/kg/injection, schedule: Q01DX009 (ip), vehicle: saline with Tween-80
[17] = endpoint: mean survival time, dose: 100.0 mg/kg/injection, schedule: Q04DX003 (ip), vehicle: Klucel (hydroxypropylcellulose) (HPC)
[18] = endpoint: mean survival time, dose: 200.0 mg/kg/injection, schedule: Q04DX003 (ip), vehicle: Klucel (hydroxypropylcellulose) (HPC)
[19] = endpoint: mean survival time, dose: 400.0 mg/kg/injection, schedule: Q04DX003 (ip), vehicle: Klucel (hydroxypropylcellulose) (HPC)

Measured: T/C

COC(=O)C(CSC(c1ccccc1)(c1ccccc1)c1ccccc1)NC(=O)C(CSCc1ccccc1)NC(=O)CCNC(=O)OCc1ccccc1 (stereo unspecified) ({Cbz-βAla}-Cys(Bn)-Cys(Trt)-OMe; configuration not given here)
inactive: endpoint: median survival time, dose: 12.5 mg/kg/injection, schedule: Q01DX009 (ip), vehicle: Klucel (hydroxypropylcellulose) (HPC) 101 % of control | endpoint: median survival time, dose: 25.0 mg/kg/injection, schedule: Q01DX009 (ip), vehicle: Klucel (hydroxypropylcellulose) (HPC) 101 % of control | endpoint: median survival time, dose: 50.0 mg/kg/injection, schedule: Q01DX009 (ip), vehicle: Klucel (hydroxypropylcellulose) (HPC) 101 % of control | endpoint: median survival time, dose: 100.0 mg/kg/injection, schedule: Q01DX009 (ip), vehicle: Klucel (hydroxypropylcellulose) (HPC) 108 % of control | endpoint: median survival time, dose: 200.0 mg/kg/injection, schedule: Q01DX009 (ip), vehicle: Klucel (hydroxypropylcellulose) (HPC) 103 % of control

O=C1c2ccccc2SCCC1C(O)c1ccccc1 (stereo unspecified)
inactive: [1] 94 % of control | [2] 94 % of control | [3] 94 % of control

CCOC(=O)C(F)(F)F
inactive: [4] 95 % of control | [5] 103 % of control | [6] 95 % of control

CCOC(=O)CC/C=C/Cc1c(OC)c(C)c2c(c1OC(=O)NCc1ccc(N(CC)CC)cc1)C(=O)OC2
inactive: [7] 112 % of control

CCCCN=C=C(c1ccccc1)c1ccccc1
inactive: endpoint: mean survival time, dose: 25.0 mg/kg/injection, schedule: Q04DX002 (ip), vehicle: other 97 % of control | endpoint: mean survival time, dose: 50.0 mg/kg/injection, schedule: Q04DX002 (ip), vehicle: other 86 % of control | endpoint: mean survival time, dose: 100.0 mg/kg/injection, schedule: Q04DX002 (ip), vehicle: other 89 % of control

Cc1cc2c(C(C)C)c(O)c(O)c(C=NCCO)c2c(O)c1-c1c(C)cc2c(C(C)C)c(O)c(O)c(C=NCCO)c2c1O
inactive: endpoint: median survival time, dose: 25.0 mg/kg/injection, schedule: Q01DX009 (ip), vehicle: saline with Tween-80 105 % of control | endpoint: median survival time, dose: 50.0 mg/kg/injection, schedule: Q01DX009 (ip), vehicle: saline with Tween-80 97 % of control | endpoint: median survival time, dose: 100.0 mg/kg/injection, schedule: Q01DX009 (ip), vehicle: saline with Tween-80 101 % of control | endpoint: median survival time, dose: 200.0 mg/kg/injection, schedule: Q01DX009 (ip), vehicle: saline with Tween-80 104 % of control | endpoint: median survival time, dose: 400.0 mg/kg/injection, schedule: Q01DX009 (ip), vehicle: saline with Tween-80 89 % of control

CCc1ccc(C(=O)CCC(=O)O)cc1
inactive: [7] 98 % of control | [8] 95 % of control | [9] 102 % of control

CC(=O)OCc1cc(=O)n(C)c2c3c4c(cc12)c(C)cc(=O)n4CO3
inactive: endpoint: mean survival time, dose: 6.25 mg/kg/injection, schedule: Q01DX009 (ip), vehicle: Klucel (hydroxypropylcellulose) (HPC) 100 % of control | endpoint: mean survival time, dose: 12.5 mg/kg/injection, schedule: Q01DX009 (ip), vehicle: Klucel (hydroxypropylcellulose) (HPC) 104 % of control and 112 % of control | endpoint: mean survival time, dose: 25.0 mg/kg/injection, schedule: Q01DX009 (ip), vehicle: Klucel (hydroxypropylcellulose) (HPC) 112 % of control and 114 % of control and 109 % of control | endpoint: mean survival time, dose: 50.0 mg/kg/injection, schedule: Q01DX009 (ip), vehicle: Klucel (hydroxypropylcellulose) (HPC) 119 % of control | endpoint: mean survival time, dose: 100.0 mg/kg/injection, schedule: Q01DX009 (ip), vehicle: Klucel (hydroxypropylcellulose) (HPC) 90 % of control

O=C1OC(=O)C2C3C=CC(C3)C12 (stereo unspecified)
inactive: endpoint: mean survival time, dose: 12.5 mg/kg/injection, schedule: Q04DX003 (ip), vehicle: saline with Tween-80 95 % of control | endpoint: mean survival time, dose: 25.0 mg/kg/injection, schedule: Q04DX003 (ip), vehicle: saline with Tween-80 101 % of control | endpoint: mean survival time, dose: 50.0 mg/kg/injection, schedule: Q04DX003 (ip), vehicle: saline with Tween-80 95 % of control | [1] 98 % of control | [4] 102 % of control | [10] 101 % of control | [2] 100 % of control | [5] 96 % of control | [11] 102 % of control | [3] 93 % of control | [6] 90 % of control | [12] 102 % of control

COC(=O)C(C(=O)OC)c1ccc(C)c(OC)c1
inactive: [13] 97 % of control | [10] 104 % of control | [14] 98 % of control | [11] 104 % of control | [15] 97 % of control | [12] 102 % of control

Nc1cc(=O)[nH]c(O)c1C(=O)O
inactive: [16] 104 % of control | [13] 96 % of control

Cc1ccccc1NC(=O)Oc1ccc(C(C)(C)C)cc1
inactive: [7] 97 % of control | [8] 86 % of control | [9] 89 % of control

CC1OC(=O)c2ccccc2S1=O (stereo unspecified)
inactive: endpoint: mean survival time, dose: 100.0 mg/kg/injection, schedule: Q01DX009 (ip), vehicle: saline sonified 98 % of control | [10] 98 % of control | endpoint: mean survival time, dose: 200.0 mg/kg/injection, schedule: Q01DX009 (ip), vehicle: saline sonified 97 % of control | [11] 100 % of control | endpoint: mean survival time, dose: 400.0 mg/kg/injection, schedule: Q01DX009 (ip), vehicle: saline sonified 97 % of control | [12] 104 % of control

C[N+]1(C)CCC2=CC3C=CC2C1C=C3 (stereo unspecified)
inactive: endpoint: median survival time, dose: 25.0 mg/kg/injection, schedule: Q04DX002 (ip), vehicle: saline with Tween-80 100 % of control | endpoint: median survival time, dose: 50.0 mg/kg/injection, schedule: Q04DX002 (ip), vehicle: saline with Tween-80 100 % of control

NP(=O)(OCCCOCc1ccccc1)N(CCCl)CCCl (stereo unspecified)
inactive: endpoint: mean survival time, dose: 12.5 mg/kg/injection, schedule: Q01DX005 (ip), vehicle: water 95 % of control | endpoint: mean survival time, dose: 25.0 mg/kg/injection, schedule: Q01DX005 (ip), vehicle: water 94 % of control | endpoint: mean survival time, dose: 50.0 mg/kg/injection, schedule: Q01DX005 (ip), vehicle: water 100 % of control | endpoint: mean survival time, dose: 100.0 mg/kg/injection, schedule: Q01DX005 (ip), vehicle: water 100 % of control | endpoint: mean survival time, dose: 200.0 mg/kg/injection, schedule: Q01DX005 (ip), vehicle: water 101 % of control

O=C1CSc2ccccc2N1CCN1C(=O)CSc2ccccc21
inactive: [17] 90 % of control | [18] 86 % of control | [19] 86 % of control

CC(/C=N\N=C(N)N)=N/N=C(N)N
inactive: endpoint: median survival time, dose: 5.0 mg/kg/injection, schedule: Q01DX009 (ip), vehicle: saline 94 % of control

O=C(CNC(=O)NCc1ccco1)N/N=C/c1c(O)ccc2ccccc12
inactive: [16] 93 % of control | [13] 97 % of control | [14] 101 % of control

Cc1nc(N)sc1S(=O)(=O)F
inactive: endpoint: mean survival time, dose: 25.0 mg/kg/injection, schedule: Q01DX009 (ip), vehicle: saline with Tween-80 97 % of control | [16] 111 % of control | [13] 94 % of control and 108 % of control | [14] 101 % of control

C#CCOC(=O)Nc1ccccc1Cl
inactive: [17] 93 % of control | [18] 105 % of control | [19] 98 % of control

C1CCC2NN=NC2C1 (stereo unspecified)
inactive: [1] 104 % of control | [2] 98 % of control

NC1=C(N)C(=O)NC(N)N1 (stereo unspecified)
inactive: endpoint: mean survival time, dose: 100.0 mg/kg/injection, schedule: Q04DX002 (ip), vehicle: saline 102 % of control | endpoint: mean survival time, dose: 200.0 mg/kg/injection, schedule: Q04DX002 (ip), vehicle: saline 102 % of control | endpoint: mean survival time, dose: 400.0 mg/kg/injection, schedule: Q04DX002 (ip), vehicle: saline 100 % of control

CC(C)(c1ccc(Nc2ccccc2)cc1)c1ccc(Nc2ccccc2)cc1
inactive: [17] 96 % of control | [18] 96 % of control | [19] 92 % of control

N#CCCOC1CCCCC1
inactive: [10] 98 % of control | [11] 93 % of control | [12] 93 % of control

O/N=C1\CN2CCC1CC2
inactive: [1] 91 % of control

O=C(O)CCCSc1nc2ccccc2s1
inactive: [13] 98 % of control | [10] 95 % of control | [14] 97 % of control | [11] 98 % of control | [15] 105 % of control | [12] 98 % of control

Nc1ncnc2c1ncn2C1OC(CCC(=O)NCCc2c[nH]c3ccccc23)C(O)C1O (stereo unspecified)
inactive: endpoint: median survival time, dose: 10.63 mg/kg/injection, schedule: Q01DX005 (ip), vehicle: distilled water + Tween-80 101 % of control | endpoint: median survival time, dose: 21.25 mg/kg/injection, schedule: Q01DX005 (ip), vehicle: distilled water + Tween-80 102 % of control | endpoint: median survival time, dose: 42.5 mg/kg/injection, schedule: Q01DX005 (ip), vehicle: distilled water + Tween-80 97 % of control | endpoint: median survival time, dose: 85.0 mg/kg/injection, schedule: Q01DX005 (ip), vehicle: distilled water + Tween-80 96 % of control | endpoint: median survival time, dose: 170.0 mg/kg/injection, schedule: Q01DX005 (ip), vehicle: distilled water + Tween-80 101 % of control
